Legend:
Male Sprague-Dawley rats = assay: Hot plate assay; assay type: in vivo; conditions: rat, SC
Method: Male Sprague-Dawley rats weighing 275-300 grams were used in the study, n=8-10 per group. Animals are injected SC with 0.9% normal saline solution. At 15, 45, and 80 min after the injection, animals were placed onto a hotplate set to 52 degrees centigrade, and baseline latency is recorded (baseline latency=average time to 2nd withdrawal response consisting of either a lick of a rear paw, shaking a rear paw, backwards walking or jumping). A day later animals were injected SC with test compounds either in vehicle solution, or with a mix of compounds in solution. Next the test latency was recorded (test latency=time to withdrawal on the hotplate measured at 15, 45, 80, 120, 180 and 240 min using the procedure described). Times were then converted to % maximum possible effect (% MPE)=(test_latecy−baseline_latency)/(30 sec−baseline_latency); where 30 sec is the cutoff where the animal is removed if no response ifs observed as it is the time point at which injury is expected to occur.

mu opioid receptor (MOR) = biological target: T1, mu opioid receptor (MOR) (Homo sapiens, UniProt P35372); assay: MOR GTPγS agonist assay (membranes, SPA beads); assay type: biochemical; conditions: membranes of CHO-K1 cells over-expressing MOR
T1 construct: host or cells: CHO-K1
Description: Membranes obtained from the stable cell lines over-expressing MOR were subjected to GTPγS assay using SPA beads (Perkin Elmer, Cat #RPNQ0001).

T1 sequence (P35372 whole entry): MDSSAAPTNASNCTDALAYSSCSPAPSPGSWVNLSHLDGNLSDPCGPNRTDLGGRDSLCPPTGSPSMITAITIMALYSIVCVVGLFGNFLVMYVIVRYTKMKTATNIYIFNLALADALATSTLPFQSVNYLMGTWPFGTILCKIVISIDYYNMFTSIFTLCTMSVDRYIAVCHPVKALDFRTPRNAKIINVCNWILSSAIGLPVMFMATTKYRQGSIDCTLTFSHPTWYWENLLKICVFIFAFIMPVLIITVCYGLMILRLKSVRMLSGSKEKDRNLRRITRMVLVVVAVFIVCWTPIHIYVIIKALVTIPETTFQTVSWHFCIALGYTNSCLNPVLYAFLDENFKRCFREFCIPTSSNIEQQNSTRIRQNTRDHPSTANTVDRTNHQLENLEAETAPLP

CN(C)[C@H](CNC(=O)[C@@H]1C[C@]1(C)c1ccccc1)Cc1ccc(O)cc1Cl [Compound B-15, (1R,2S)—N—((S)-3-(2-chloro-4-hydroxyphenyl)-2-(dimethylamino)propyl)-2-methyl-2-phenylcyclopropane-1-carboxamide]
effect on the analgesic activity of agonist Compound B-56 in the hotplate test (Male Sprague-Dawley rats; co-dosed with Compound B-56, FIG. 1): blocks in vivo the analgesic activity of the agonist Compound B-56
effect on its own in the hotplate test (Male Sprague-Dawley rats; dosed alone, FIG. 1): no effect on its own

Cc1cc(O)ccc1C[C@@H](CNC(=O)[C@@H]1C[C@@]1(C)c1ccccc1)N(C)C [Compound B-56, (1R,2R)—N—((S)-2-(dimethylamino)-3-(4-hydroxy-2-methylphenyl)propyl)-2-methyl-2-phenylcyclopropane-1-carboxamide]
analgesic activity in the hotplate test (time to withdrawal response, % MPE) (Male Sprague-Dawley rats; hotplate 52 degrees centigrade, FIG. 1): analgesic

CNC(=O)c1ccc(C[C@@H](CNC(=O)c2ccc(Cl)cc2Cl)N(C)C)cc1F [Compound C-37, (S)-2,4-dichloro-N-(2-(dimethylamino)-3-(3-fluoro-4-(methylcarbamoyl)phenyl)propyl) benzamide]
EC50 (mu opioid receptor (MOR)): < 100 nM

CNC(=O)c1cc(C)c(C[C@@H](CNC(=O)c2ccccc2OC)N(C)C)c(C)c1 [Compound C-68, (S)-4-(2-(dimethylamino)-3-(2-methoxybenzamido)propyl)-N,3,5-trimethylbenzamide]
EC50 (mu opioid receptor (MOR)): < 100 nM
